Laboratory results: article PMC7483475, “The Sporomusa type Nfn is a novel type of electron-bifurcating transhydrogenase that links the redox pools in acetogenic bacteria” (Scientific Reports, 2020)
Blank lines part the entries; values can stand above or below the molecule they belong to.

How the values were obtained:
[1] = molecular target: Sporomusa type Nfn (Stn) complex, heterotrimer of StnA, StnB and StnC (Sporomusa ovata); assay: SEC; analytical gel filtration of the purified Stn complex on Superdex 200; heterotrimer to tetramer of heterotrimers
[2] = molecular target: T1, Stn complex (Sporomusa type Nfn; StnABC) (Sporomusa ovata, UniProt A0A0U1KYI6+A0A0U1KYM9); assay: protein precipitation and thin layer chromatography of released flavin; format: binding; details: bound flavin, loosely bound; FAD and FMN present in purification buffers
T1 construct: gene SpAn4DRAFT_2936; native purification from S. ovata cytoplasm, untagged; ~840 kDa tetrameric heterotrimer; identified by MALDI-TOF-MS; with Sporomusa type Nfn subunit A (NuoE-like, HydC/HndA-like [2Fe-2S] subunit)
T1 sequence (A0A0U1KYM9 1-584): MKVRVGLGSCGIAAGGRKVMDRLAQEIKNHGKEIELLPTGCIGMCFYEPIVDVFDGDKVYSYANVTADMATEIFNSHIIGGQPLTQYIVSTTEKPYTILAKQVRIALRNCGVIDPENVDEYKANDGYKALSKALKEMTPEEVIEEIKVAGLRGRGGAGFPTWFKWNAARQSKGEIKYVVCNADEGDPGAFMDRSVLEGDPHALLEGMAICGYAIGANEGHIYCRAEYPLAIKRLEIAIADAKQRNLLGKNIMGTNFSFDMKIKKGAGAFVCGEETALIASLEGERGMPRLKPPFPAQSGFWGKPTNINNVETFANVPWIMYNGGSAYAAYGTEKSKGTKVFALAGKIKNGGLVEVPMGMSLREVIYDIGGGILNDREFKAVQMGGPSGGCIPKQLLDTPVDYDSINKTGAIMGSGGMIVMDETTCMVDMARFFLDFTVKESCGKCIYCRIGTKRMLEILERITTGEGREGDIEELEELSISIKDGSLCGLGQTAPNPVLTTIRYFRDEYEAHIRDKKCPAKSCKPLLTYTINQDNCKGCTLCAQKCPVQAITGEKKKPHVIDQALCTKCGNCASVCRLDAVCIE
T1 sequence (A0A0U1KYI6 1-1172): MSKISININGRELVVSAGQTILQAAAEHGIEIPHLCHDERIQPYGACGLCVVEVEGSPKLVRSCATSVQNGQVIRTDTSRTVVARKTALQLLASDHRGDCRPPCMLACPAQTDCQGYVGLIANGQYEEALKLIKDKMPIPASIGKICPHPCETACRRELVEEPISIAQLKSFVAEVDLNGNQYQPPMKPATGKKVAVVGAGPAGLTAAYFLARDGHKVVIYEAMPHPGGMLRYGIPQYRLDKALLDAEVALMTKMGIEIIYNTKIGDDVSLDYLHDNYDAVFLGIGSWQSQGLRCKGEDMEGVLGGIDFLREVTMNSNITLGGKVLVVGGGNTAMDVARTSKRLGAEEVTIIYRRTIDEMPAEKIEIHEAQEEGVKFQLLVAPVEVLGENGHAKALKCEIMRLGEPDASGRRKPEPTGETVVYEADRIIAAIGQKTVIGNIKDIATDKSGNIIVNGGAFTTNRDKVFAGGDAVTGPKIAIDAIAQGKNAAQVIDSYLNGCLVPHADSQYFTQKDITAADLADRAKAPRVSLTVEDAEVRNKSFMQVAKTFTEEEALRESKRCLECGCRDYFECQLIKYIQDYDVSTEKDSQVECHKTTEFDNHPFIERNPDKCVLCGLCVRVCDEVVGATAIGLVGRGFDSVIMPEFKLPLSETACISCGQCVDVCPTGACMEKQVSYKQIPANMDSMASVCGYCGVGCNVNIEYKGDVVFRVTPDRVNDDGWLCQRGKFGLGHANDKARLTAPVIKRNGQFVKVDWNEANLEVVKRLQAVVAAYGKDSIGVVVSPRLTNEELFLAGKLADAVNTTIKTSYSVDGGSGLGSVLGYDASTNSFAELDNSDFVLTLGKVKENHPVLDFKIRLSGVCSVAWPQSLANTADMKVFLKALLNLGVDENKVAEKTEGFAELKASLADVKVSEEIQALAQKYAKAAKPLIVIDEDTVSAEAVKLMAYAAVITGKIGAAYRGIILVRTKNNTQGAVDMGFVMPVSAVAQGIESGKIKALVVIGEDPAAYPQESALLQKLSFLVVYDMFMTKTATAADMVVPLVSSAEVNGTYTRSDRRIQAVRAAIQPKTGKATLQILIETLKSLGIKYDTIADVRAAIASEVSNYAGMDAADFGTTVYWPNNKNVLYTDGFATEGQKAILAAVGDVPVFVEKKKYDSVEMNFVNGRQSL
T1 sequence (A0A0U1KYW8 1-178 partner): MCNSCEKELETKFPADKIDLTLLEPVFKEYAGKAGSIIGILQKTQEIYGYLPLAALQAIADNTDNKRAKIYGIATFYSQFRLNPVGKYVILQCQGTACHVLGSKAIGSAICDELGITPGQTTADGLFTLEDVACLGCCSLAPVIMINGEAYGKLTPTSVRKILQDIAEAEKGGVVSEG

StnC (strep-tagged) [3] = molecular target: T2, StnC (strep-tagged) (Sporomusa ovata, UniProt A0A0U1KYI6); assay: thin layer chromatography of bound flavin; format: binding; details: bound flavin of recombinant StnC
T2 construct: gene SpAn4DRAFT_2937; isolated subunit, N-terminal Strep-tag kept, E. coli BL21 (DE3) delta-iscR; translated from primers: N-term MWSHPQFEKSA-SKISININGR, C-term NFVNGRQSL
T2 sequence (A0A0U1KYI6 2-1172): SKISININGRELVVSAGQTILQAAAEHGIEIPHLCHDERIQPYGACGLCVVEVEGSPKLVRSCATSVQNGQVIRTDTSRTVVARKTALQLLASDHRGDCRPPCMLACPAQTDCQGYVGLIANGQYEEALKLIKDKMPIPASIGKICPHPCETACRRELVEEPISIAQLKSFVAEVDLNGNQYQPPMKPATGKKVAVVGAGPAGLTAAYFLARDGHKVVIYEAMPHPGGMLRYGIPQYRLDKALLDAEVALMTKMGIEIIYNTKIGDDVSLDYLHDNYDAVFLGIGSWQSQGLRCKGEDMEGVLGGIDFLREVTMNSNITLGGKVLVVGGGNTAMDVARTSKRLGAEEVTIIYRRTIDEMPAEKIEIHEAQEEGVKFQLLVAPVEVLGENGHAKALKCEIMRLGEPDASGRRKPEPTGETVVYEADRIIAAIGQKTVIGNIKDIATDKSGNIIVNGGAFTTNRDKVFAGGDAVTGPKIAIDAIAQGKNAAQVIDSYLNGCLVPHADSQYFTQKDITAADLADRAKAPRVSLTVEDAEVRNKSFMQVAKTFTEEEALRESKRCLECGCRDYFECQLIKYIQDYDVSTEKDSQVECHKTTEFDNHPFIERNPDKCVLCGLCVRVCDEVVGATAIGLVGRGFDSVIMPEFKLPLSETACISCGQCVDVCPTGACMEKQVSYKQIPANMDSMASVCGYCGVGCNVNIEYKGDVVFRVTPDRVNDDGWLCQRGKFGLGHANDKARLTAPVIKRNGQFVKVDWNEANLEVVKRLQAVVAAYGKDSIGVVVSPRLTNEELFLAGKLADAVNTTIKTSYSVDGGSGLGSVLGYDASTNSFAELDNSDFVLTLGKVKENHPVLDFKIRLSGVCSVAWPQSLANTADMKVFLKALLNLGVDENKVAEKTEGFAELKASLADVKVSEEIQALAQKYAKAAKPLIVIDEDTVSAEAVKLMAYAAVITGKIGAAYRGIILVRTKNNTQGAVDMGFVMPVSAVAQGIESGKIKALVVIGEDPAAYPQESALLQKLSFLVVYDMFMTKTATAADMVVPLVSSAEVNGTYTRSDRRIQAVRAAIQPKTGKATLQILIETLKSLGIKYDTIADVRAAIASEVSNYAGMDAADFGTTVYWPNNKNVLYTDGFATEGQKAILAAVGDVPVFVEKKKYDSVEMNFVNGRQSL

StnC (strep-tagged) [4] = molecular target: T2, StnC (strep-tagged); assay: spectrophotometric NADPH-dependent acceptor reduction; format: biochemical; details: acceptors methyl viologen, FAD, FMN or ferricyanide; 100 mM Tris/HCl pH 7.5, 20 °C
StnC (strep-tagged) [5] = molecular target: T2, StnC (strep-tagged); assay: spectrophotometric FMN reduction, […] nm; format: biochemical; details: electron acceptor, 0.2 mM FMN, 0.25 mM NADPH; 100 mM Tris/HCl pH 7.5, 20 °C

stoichiometry N [1]: 4
Molecule: Sporomusa type Nfn (Stn) complex, heterotrimer of StnA, StnB and StnC

Molecule: Cc1cc2nc3c(=O)[nH]c(=O)nc-3n(C[C@H](O)[C@H](O)[C@H](O)COP(=O)(O)OP(=O)(O)OC[C@H]3O[C@@H](n4cnc5c(N)ncnc54)[C@H](O)[C@@H]3O)c2cc1C [FAD]
protein precipitation and thin layer chromatography of released flavin [2]: FAD was identified to be the only flavin bound
thin layer chromatography of bound flavin (StnC (strep-tagged) [3]): The identity of bound Flavin was elucidated by TLC to be FAD.

Molecule: NC(=O)C1=CN([C@@H]2O[C@H](COP(=O)(O)OP(=O)(O)OC[C@H]3O[C@@H](n4cnc5c(N)ncnc54)[C@H](OP(=O)(O)O)[C@@H]3O)[C@@H](O)[C@H]2O)C=CC1 [NADPH]
spectrophotometric NADPH-dependent acceptor reduction (StnC (strep-tagged) [4]): The purified protein exhibited NADPH oxidation with methyl viologen, FAD, FMN and ferricyanide

Molecule: Cc1cc2nc3c(=O)[nH]c(=O)nc-3n(C[C@H](O)[C@H](O)[C@H](O)COP(=O)(O)O)c2cc1C [FMN]
spectrophotometric FMN reduction, 450 nm (StnC (strep-tagged) [5]): The purified protein exhibited NADPH oxidation with methyl viologen, FAD, FMN and ferricyanide
